Measured values taken from patent publication US7521418B2, “Use of a polyene macrolide antifungal agent in combination with a glycopeptide antibacterial agent” (Theravance, Inc., priority 2003, dated 2009).

Legend:
C. glabrata ATCC 200918 = assay: Checkerboard MIC assay, FICI; assay type: cell-based, Candida glabrata; details: combination with Compound 1
Text: The following assay was used to determine the minimum inhibitory concentration (MIC) and fractional inhibitory concentration index (FICI) for combinations of an antifungal agent and a glycopeptide antibacterial agent. This assay and methods for calculating FICI are well known in the art. See, for example, Eliopoulos, E. G. and R. Moellering, Jr. “Antimicrobial Combinations” in Antibiotics in Laboratory Medicine, edited by V. Lorian, 4th Ed., Williams & Wilkins, Baltimore, MD, pp. 330-396 (1996); […] et al., Antimicrobial Agents and Chemotherapy 47(4):1416-1418 (2003); or […] et al., Antimicrobial Agents and Chemotherapy 46(10):3323-3326 (2002). Procedures, protocols, supplies and equipment used in this assay follow the recommendations approved and published by the National Committee for Clinical Laboratory Standards (NCCLS), Wayne, Pa. as described in NCCLS 2003, “Reference Method for Broth Dilution Antimicrobial Susceptibility Tests for Bacteria that Grow Aerobically; Approved Standard” (NCCLS document M7-A6); NCCLS 2002, “Reference Method for Broth Dilution Antifungal Susceptibility Tests of Filamentous Fungi that Grow Aerobically; Approved Standard” (NCCLS document M38-A); and NCCLS 2002 “Reference Method for Broth Dilution Antifungal Susceptibility Tests of Yeast; Approved Standards-2nd Edition” (NCCLS document M27-A2). Using a checkerboard method, a 2-fold dilution 100× final concentration master plate was prepared using a 96-well U-shape microtiter plate and an appropriate solvent. In the “checkerboard” method, a microtiter plate is divided into “columns” in which each well in the column contains the same amount of an antifungal agent (Compound A) being diluted along the x-axis, and “rows” in which each well in the row contains the same amount of a glycopeptide antibacterial agent (Compound B) being diluted on the y-axis. Also included is a row (or column) for Compound A or B alone. The dilutions used in the checkerboard are exponential (by powers of two). The result is that each well in the microtiter plate contains a unique concentration of the two compounds being tested. […] After mixing, 100 μL of 2× drug combinations were distributed into 96-well microtiter plates. […] Compound A was not added to Column 12, so Column 12 contained only Compound B. Compound B was diluted from row A starting at 6,400 μg/mL down to row G (100 μg/mL). Wells in Row A contained a final concentration of 64 μg/mL of Compound B; Row B contained a final concentration of 32 μg/mL of Compound B; Row C contained a final concentration of 16 μg/mL of Compound B; etc. Compound B was not added to Row H, so Row H only contained Compound A. […] The MIC of the glycopeptide antibacterial agent determined from this experiment was used in FIC calculations. […]

[1] = tested on: C. parapsilosis ATCC 22019; assay: Checkerboard MIC assay, FICI; assay type: cell-based, Candida parapsilosis; details: combination with Compound 1; C. parapsilosis ATCC 22019
Text: The following assay was used to determine the minimum inhibitory concentration (MIC) and fractional inhibitory concentration index (FICI) for combinations of an antifungal agent and a glycopeptide antibacterial agent. This assay and methods for calculating FICI are well known in the art. See, for example, Eliopoulos, E. G. and R. Moellering, Jr. “Antimicrobial Combinations” in Antibiotics in Laboratory Medicine, edited by V. Lorian, 4th Ed., Williams & Wilkins, Baltimore, MD, pp. 330-396 (1996); […] et al., Antimicrobial Agents and Chemotherapy 47(4):1416-1418 (2003); or […] et al., Antimicrobial Agents and Chemotherapy 46(10):3323-3326 (2002). Procedures, protocols, supplies and equipment used in this assay follow the recommendations approved and published by the National Committee for Clinical Laboratory Standards (NCCLS), Wayne, Pa. as described in NCCLS 2003, “Reference Method for Broth Dilution Antimicrobial Susceptibility Tests for Bacteria that Grow Aerobically; Approved Standard” (NCCLS document M7-A6); NCCLS 2002, “Reference Method for Broth Dilution Antifungal Susceptibility Tests of Filamentous Fungi that Grow Aerobically; Approved Standard” (NCCLS document M38-A); and NCCLS 2002 “Reference Method for Broth Dilution Antifungal Susceptibility Tests of Yeast; Approved Standards-2nd Edition” (NCCLS document M27-A2). Using a checkerboard method, a 2-fold dilution 100× final concentration master plate was prepared using a 96-well U-shape microtiter plate and an appropriate solvent. In the “checkerboard” method, a microtiter plate is divided into “columns” in which each well in the column contains the same amount of an antifungal agent (Compound A) being diluted along the x-axis, and “rows” in which each well in the row contains the same amount of a glycopeptide antibacterial agent (Compound B) being diluted on the y-axis. Also included is a row (or column) for Compound A or B alone. The dilutions used in the checkerboard are exponential (by powers of two). The result is that each well in the microtiter plate contains a unique concentration of the two compounds being tested. […] After mixing, 100 μL of 2× drug combinations were distributed into 96-well microtiter plates. […] Compound A was not added to Column 12, so Column 12 contained only Compound B. Compound B was diluted from row A starting at 6,400 μg/mL down to row G (100 μg/mL). Wells in Row A contained a final concentration of 64 μg/mL of Compound B; Row B contained a final concentration of 32 μg/mL of Compound B; Row C contained a final concentration of 16 μg/mL of Compound B; etc. Compound B was not added to Row H, so Row H only contained Compound A. […] The MIC of the glycopeptide antibacterial agent determined from this experiment was used in FIC calculations. […] RPMI-1640 without sodium bicarbonate media (GIBCO-BRL, Carlsbad, Calif.), an enriched media formulated for mammalian cells, was used according to the NCCLS guidelines for yeast and filamentous fungi susceptibility testing. The medium was buffered with 0.165 M 3-[N-Morpholino]propanesulfonic acid (MOPS) supplemented with 20 g/L glucose and pH adjusted to 7.0 with hydrogen chloride. Sabouraud Dextrose Agar ([…] plates, and Potato Dextrose Agar (PDA) plates were purchased from Hardy Diagnostic (Santa Maria, Calif.). Yeast cultures were started from -80° C. frozen stock streaked on […] incubated at 35° C. under aerobic conditions for 24 h. The […] in the refrigerator for up to 2 weeks and used regularly as a starting culture. About 24 to 48 h before each assay was run, yeasts were streaked on SDA plates for isolated colonies. To prepare the inoculum, from one to four colonies were resuspended in 5 mL of saline, and vortexed for 15 sec. […] For most yeast and mold cultures, the optical density (OD) of the suspension was adjusted to 0.11 in saline to provide 0.4×10^6 CFU/mL. However, for Fusarium moniliforme and Pseudallescheria boydii the OD of the suspension was adjusted to OD=0.17 to provide 0.4×10^6 CFU/mL. […]

Row | Compound | FICI (C. glabrata ATCC 200918) | FICI [1]
1 | C[C@@H]1[C@H](O)[C@@H](C)/C=C/C=C/C=C/C=C/C=C/C=C/C=C/[C@H](O[C@@H]2O[C@H](C)[C@@H](O)[C@H](N)[C@@H]2O)C[C@@H]2O[C@](O)(C[C@@H](O)C[C@@H](O)[C@H](O)CC[C@@H](O)C[C@@H](O)CC(=O)O[C@H]1C)C[C@H](O)[C@H]2C(=O)O [Amphotericin B] | 0.19 | 0.28
2 | C[C@@H]1[C@H](O)[C@@H](C)/C=C/C=C/CC/C=C/C=C/C=C/C=C/C(O[C@H]2O[C@H](C)[C@@H](O)[C@H](N)[C@@H]2O)CC2O[C@](O)(CC(O)C(O)CCC(O)CC(O)CC(O)CC(=O)O[C@H]1C)CC(O)C2C(=O)O (stereo partly shown) [Nystatin] | 0.31 | 0.31
